From doi:10.1101/2025.06.22.660908v1 (biorxiv, 2025)

Experiments:
[1] = target: hERG (Homo sapiens, UniProt Q12809, species not given); assay: hERG inhibition; assay type: cell-based
[2] = target: T1, Recombinant human TREM2 (Homo sapiens, UniProt Q9NZC2); assay: microscale thermophoresis; assay type: binding
T1 sequence (Q9NZC2 19-174 limits assumed): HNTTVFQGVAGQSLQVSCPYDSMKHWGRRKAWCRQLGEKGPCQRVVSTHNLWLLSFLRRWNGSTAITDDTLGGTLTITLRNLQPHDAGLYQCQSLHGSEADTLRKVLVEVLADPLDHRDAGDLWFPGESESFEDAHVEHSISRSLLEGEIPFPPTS

Chain of hERG (Q12809 whole entry): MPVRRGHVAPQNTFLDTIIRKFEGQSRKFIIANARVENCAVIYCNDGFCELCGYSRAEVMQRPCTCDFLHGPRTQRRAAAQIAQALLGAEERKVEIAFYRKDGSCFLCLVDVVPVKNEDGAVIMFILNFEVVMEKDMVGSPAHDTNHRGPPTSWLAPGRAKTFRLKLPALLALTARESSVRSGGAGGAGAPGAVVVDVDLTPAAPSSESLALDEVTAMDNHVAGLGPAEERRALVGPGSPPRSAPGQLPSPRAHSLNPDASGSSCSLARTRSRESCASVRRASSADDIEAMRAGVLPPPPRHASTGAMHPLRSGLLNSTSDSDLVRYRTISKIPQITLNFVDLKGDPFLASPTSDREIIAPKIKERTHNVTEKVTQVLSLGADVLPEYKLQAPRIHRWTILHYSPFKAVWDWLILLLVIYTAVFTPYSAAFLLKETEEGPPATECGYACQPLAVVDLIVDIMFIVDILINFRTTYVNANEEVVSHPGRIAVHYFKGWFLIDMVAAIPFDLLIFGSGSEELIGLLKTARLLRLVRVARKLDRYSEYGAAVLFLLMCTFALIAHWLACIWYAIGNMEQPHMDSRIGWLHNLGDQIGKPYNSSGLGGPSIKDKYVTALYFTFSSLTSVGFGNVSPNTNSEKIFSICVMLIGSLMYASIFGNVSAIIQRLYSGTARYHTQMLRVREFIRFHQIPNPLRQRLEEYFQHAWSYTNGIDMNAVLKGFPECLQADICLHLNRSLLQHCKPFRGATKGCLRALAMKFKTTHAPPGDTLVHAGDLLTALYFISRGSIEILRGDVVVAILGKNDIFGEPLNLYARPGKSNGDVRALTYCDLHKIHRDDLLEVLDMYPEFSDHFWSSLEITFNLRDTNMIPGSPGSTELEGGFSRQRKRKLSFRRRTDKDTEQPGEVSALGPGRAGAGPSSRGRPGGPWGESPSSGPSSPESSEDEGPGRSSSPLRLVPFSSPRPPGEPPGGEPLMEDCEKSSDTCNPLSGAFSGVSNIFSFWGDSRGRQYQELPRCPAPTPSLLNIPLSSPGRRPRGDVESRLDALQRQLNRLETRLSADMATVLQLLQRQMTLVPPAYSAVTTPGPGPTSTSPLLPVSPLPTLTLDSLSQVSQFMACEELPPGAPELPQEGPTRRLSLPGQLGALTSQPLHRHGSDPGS

SMILES	IC50 [1]	Kd [2]
Cc1nc2cc([C@H]3CCO[C@@H](c4cnn(C)c4)C3)nc(-c3ccc(Cl)cc3F)c2nc1C [VG-3927]	> 100 µM	–
Cc1nc2cc(C3=CC(c4cnn(C)c4)OCC3)nc(-c3ccc(Cl)cc3F)c2nc1C (stereo not drawn) [C1]	> 100 µM	71.4 ± 4.06 µM
